The values that follow come from patent US20030212142A1, “Use of derivatives of valproic acid and 2-valproenic acid amides for the treatment of mania in bipolar disorder” (Yissum Research Development Company of the Hebrew …, priority 2000, published 2003).

“Also recorded” adds a separate entry of the source.

The subject of this assay is amphetamine-induced hyperactivity. Put plainly: amphetamine-induced hyperactivity model of mania in rats (activity meter, rearing). It counts as in vivo, male Sprague Dawley rats. Conditions: Compound 1 200 mg/kg by gavage; for Vertical Activity (Rearing), Mean Activity, Amphetamine challenge: amphetamine 0.5 mg/kg s.c. challenge; for Vertical Activity (Rearing), Mean Activity, Amphetamine challenge / Vertical Activity (Rearing), Mean activity, Saline challenge: movements per 30 min, Li+ 6 mg/kg by gavage; for Vertical Activity (Rearing), Mean activity, Saline challenge: saline s.c. challenge. On the procedure: Evaluation of possible anti-bipolar effects of Compound 1 was followed in the amphetamine-induced hyperactivity model of mania in rats. Activities of rats were followed in an activity meter (Elvicom, Israel) based on 2 levels laser beams and equipped with a computerized system that can count the vertical movements of rats (rearing). Activities were recorded for -30 min for each session, and the resultant appropriate movement reported per 30 min. Rats were housed under a 12 hr light/dark cycle and the behavioral testing was conducted in the light phase.
The activities of rats following treatment with Compound 1, Li^+ (the standard drug for mania), and a control group were followed before and after being challenged with amphetamine. The statistical analyses were conducted using a two way ANOVA for the effects of drugs, amphetamine (repeated measure) and the drug-amphetamine interaction.
In these experiments 30 male Sprague Dawley (weighing 200-250 g) rats were equally divided into 3 treatment groups: control, Li^+ (6 mg/kg by gavage)), and Compound 1 (200 mg/kg by gavage) (Drugs were suspended in 5% methyl cellulose). Half of the rats in each group were challenged (administered) amphetamine (0.5 mg/kg subsutaneously (s.c.)) and the other half was given saline (s.c.). Ten minutes later all rats were placed in the activity meter. One week later the procedure was repeated, except that the order of treatment was reversed; those rats which received saline on the first day were given amphetamine and those given amphetamine the first day were administered saline.

As for `CCCC(CCC)C(=O)NCC(N)=O` [Compound 1], the “Vertical Activity (Rearing), Mean Activity, Amphetamine challenge” value is 71.3 and the “Vertical Activity (Rearing), Mean activity, Saline challenge” value is on record as 34.1. Also, the “effect on amphetamine-induced rearing compared to control animals challenged with amphetamine” value (amphetamine 0.5 mg/kg s.c., p=0.06) is “decreases amphetamine-induced hyperactivity; also recorded: reduced the rearing; also recorded: decreased the induced rearing in a similar manner as Li^+”.
In the case of `[Li]` [Li, lithium, reference compound], the “Vertical Activity (Rearing), Mean Activity, Amphetamine challenge” value stood at 126.7 and the “Vertical Activity (Rearing), Mean activity, Saline challenge” value turned out to be 59.8.
